“Also recorded” adds a separate entry of the source.
Columns and labels:
[1] = tested on: plasmid DNA [pGEM 3Zf(−)]; experiment: Agarose gel electrophoresis of ionizing-radiation-induced damage to plasmid DNA; assay type: biochemical, Escherichia Coli JM 109; conditions: 200 μM compound; two-UV-photon ionizing radiation of water; versus pure water
Excerpt: Ultrapure water for life science with a resistivity of >18.2 MΩ/cm and TOC<1 ppm obtained freshly from a Barnstead Nanopure water system was used. Dibromo-diamino-benzene (Dibromo-phenylenediamine, Compound B) was obtained from TCI-America, while other chemicals and buffer compositions were obtained from Sigma-Aldrich. Plasmid DNA [pGEM 3Zf(−), […]] was extracted from Escherichia Coli JM 109 and purified using QIAprep Kit (Qiagen).
The pump beam at 322 nm, identical to that for fs-TRLS measurements, was used to produce radicals via two-photon excitation of water in DNA solutions. The laser beam was focused into a quartz cell containing 3.0 μg of DNA in 200 μL of buffer solutions. The solutions were stirred during irradiation to produce uniform DNA damage throughout the samples. Aliquots equivalent to 96 ng DNA were removed from the sample cell in various irradiation times for gel electrophoresis. All aliquots were analyzed with a standard agarose gel electrophoresis method, namely, on 1% neutral TAE agarose gel in TAE running buffer. The gel was prestained with 0.5 μg/ml ethidium bromide. […] They were quantified with an AlphaEase FC software.

[2] = tested on: human cervical cancer (ME-180) xenograft; experiment: Xenograft mouse tumor model of human cervical cancer (ME-180) in female SCID mice; assay type: in vivo
Procedure: The four groups in the experiment were: (1) control article (5% EtOH/medium); (2) 15 Gy X-ray irradiation; (3) Compound B at 7 mg/kg in 5% EtOH/medium and (4) Compound B at 7 mg/kg in 5% EtOH/medium plus 15 Gy X-ray irradiation, as shown in Table 2.
ME-180 (human cervical cancer) cells were cultured in the ATCC-formulated McCoy's 5 A Medium supplemented with 10% FBS. The cells in a flask were maintained at 37° C. in a humidified atmosphere containing 5% CO2. The cells were rinsed with PBS, trypsined for detachment from the bottom of the flask, mixed with fresh growth medium, and centrifuged to remove the supernatant. The cells were re-suspend with fresh medium to appropriate concentration for inoculation. Injection volume was 50 μl (1×10^6 cells) per animal.
ME-180 tumour cells were implanted subcutaneously into female SCID mice (age 6-8 weeks) in a volume of 50 μL into the left gastrocneumius muscle using a 27-gauge needle. This was established as a subcutaneous (SC) xenograft mouse model of human cervical cancer.
Mice were individually weighed and injected intraperitoneally according to body weight for an injection concentration as outlined in the study group table above. The injection volume was based on 200 μL per 20 g mouse. The skin surface was wiped down with 70% isopropyl alcohol to clean the injection site. Radiation was given using X-rad 225 targeted irradiator to the tumors.
Tumor size was measured as a function of time to assess tumor growth delay associated with treatment using slide caliper and […]. Animals were also weighed at the time of tumour measurement. Tumours in mice were allowed to grow to a maximum of 1000 mm^3 before termination.

[3] = In vivo pharmacokinetics of Compound B in SCID mice
Excerpt: Blood samples were collected from the saphenous vein of mice at various time points after IP injection of the compound into the mice and then analyzed using HPLC-Mass Spectrometry.

[4] = tested on: human normal cells (GM05757); experiment: In vitro radiation-induced toxicity in human normal cells, MTT assay 12 days after X-ray; assay type: cell-based; conditions: GM05757, 12-hr treatment, then 0-10 Gy 225 keV X-ray, MTT at 12 days
Excerpt: Dibromo-diamino-benzene (Dibromo-phenylenediamine, Compound B) was obtained from TCI-America. Diiodo-diaminobenzene (Compound C) were synthesized, purified and crystallized in our laboratory, and the structures and purity were examined by NMR and mass spectrometry. MEM and fetal bovine serum (FBS), penicillin G and streptomycin were obtained from Hyclone Laboratories (UT, USA). Stock solution of cisplatin was freshly prepared in ultrapure water or saline, and stock solutions of Compounds A, B, C, D were prepared in pure ethanol, where the final concentration of ethanol was ≦1% when treated to cells.
A human skin diploid fibroblast (GM05757 cell line) was obtained from the Coriell Cell Repository directly. Fetal bovine serum (FBS) was obtained from Hyclone Laboratories (UT, USA). The GM05757 normal cells were cultivated with MEM (Hyclone) supplemented with 10% FBS, 100 units/mL penicillin G and 100 μg/mL streptomycin (Hyclone). The cells were maintained at 37° C. in a humidified atmosphere containing 5% CO2.
The radiosensitizing effects of RSCs on cell viability were determined by the 3-[4,5-dimethylthiazol-2-yl]-2,5-diphenyl tetrazoliumbromide (MTT) assay. Cells were cultured in 96-well plates (5×10^3 cells/well) for 24 h. The culture medium was replaced by fresh culture medium and incubated for 12 h with varying drug concentrations. The cells were then irradiated by 225 kV X-ray (PRECISION X-RAD IR 225) at a dose rate of 2 Gy/min with various X-ray doses. After irradiation, the cells were incubated for 12 days. The MTT assay of cell viability was then conducted. Briefly, 100 μl new medium without phenol red containing 1.2 mM MTT (sigma) (i.e., adding 10 μl 12 mM MTT stock solution in PBS) were added to each well and incubated for 4 h. […] The surviving fraction was determined by measuring the absorbance at 540 nm (570 nm for SDS solubilization) using a Multiskan Spectrum UV/Vis microplate reader (Thermo Scientific), which is directly proportional to the number of viable cells.

Nc1cc(Br)c(Br)cc1N [Compound B, 4,5-dibromo-1,2-phenylenediamine]
radiation-induced DNA double-strand breaks (DSBs) [1]: significantly enhanced; also recorded: significant enhancement of DSBs
suppression of tumor growth ([2]; 7 mg/kg IP 1 hr prior to 15 Gy 225 keV x-ray, versus radiation or compound only): significantly enhanced the suppression of tumor growth
tumor growth delay ([2]; 7 mg/kg plus 15 Gy x-ray, single doses): very significant tumor growth delay in vivo till 21 days
shrinkage of the tumor ([2]; 7 mg/kg plus 15 Gy x-ray, tumor volumes and MRI, Day 21): significant shrinkage of the tumor in mice; also recorded: most significant shrinkage of the tumor in mice
detection of compound in blood/plasma ([3]; after IP injection): significant levels; also recorded: detected in the plasma
elimination from the body ([3]; after IP injection): well expelled from the body within a few hours
time of highest concentration after i.p. injection ([3]; plasma/blood, IP 0-7 mg/kg, HPLC-Mass Spectrometry): about 20 minutes
time at which concentration dropped to nearly zero ([3]; plasma/blood, after i.p. injection): about 3 hr
radiation toxicity in human normal cells [4]: no radiation toxicity

Source: US9655965B2, “Radiosensitizer compounds for use in combination with radiation” (priority 2013, dated 2017)
